# Data published in PMC12867150, “A fungi-derived cyclic peptide enhances Th9-mediated antitumor immunity by targeting ZAP70 and SREBP1” (The Journal of Clinical Investigation, 2025).
# Where “and” joins values, the source holds several entries; their conditions need not be identical. Equal entries are not always repeated. Structures can show the parent of a compound that is named as a salt.
# Tests used:
# Assay type in all cases: cell-based, mouse
# [1] = tested on: mitochondria of Th9 cells; assay: Flow cytometry with MitoTracker Deep Red (Figure 4M, 5L, 7F, 7J); conditions: for mitochondrial membrane potential measured by MitoTracker staining: Figure 7F; for mitochondrial membrane potential measured by MitoTracker staining / Mito tracker (flow cytometric quantification): (n = 3); for Mito tracker (flow cytometric quantification): Figure 5L; for mitochondrial membrane potential in Th9 cells: Figure 7J, one per column (n = 4)
# Description: […] Cells were incubated with the respective dyes, washed, and subjected to flow cytometry or fluorescence microscopy analysis. For ultrastructural assessment, mitochondrial number and diameter were quantified from high-resolution transmission electron microscopy (TEM) images using ImageJ software.
# [2] = tested on: gene expression in Th9 cells; assay: Bulk RNA-seq of Th9 cells (Figure 3A-D, 7G, S5B, S8G-H); design: key to Il13 expression (RNA-seq) / Batf expression (RNA-seq) / Il4 expression (RNA-seq) / Il5 expression (RNA-seq) / Il9 expression (RNA-seq) / Tnfsf15 expression (RNA-seq) / Tnf expression (RNA-seq) / Lta expression (RNA-seq) / Fasl expression (RNA-seq) / Tnfsf9 expression (RNA-seq) / Tnfsf14 expression (RNA-seq): FPKM (fragments per kilobase of transcript per million mapped reads); conditions: for cluster 2 genes (calcium ion transport, glycolysis, oxidative phosphorylation, ERK signaling) / lipid biosynthesis genes: RNA-seq clustering; for Fpkm of Slc2a1: Supplemental Figure 5B
# Description: RNA integrity and concentration were assessed by Majorbio Technologies. RNA-seq libraries were constructed following standard Illumina protocols and sequenced using a paired-end strategy on an Illumina platform.
# Raw sequencing reads were quality filtered and adapter trimmed using Trim Galore (v0.6.x) and then aligned to the mouse reference genome (GRCm38) with HISAT2 (v2.2.x). Gene-level quantification was performed using featureCounts (v2.0.x) to obtain raw read counts, which were subsequently normalized as fragments per kilobase of transcript per million mapped reads for exploratory analyses and data visualization.
# Differential gene expression analysis was conducted using DESeq2 (v1.44.0) in R, with significance thresholds set at an adjusted P < 0.05 and absolute fold change ≥1.5. Visualization of transcriptomic profiles included volcano plots generated via ggplot2 (v3.5.1) and heatmaps rendered using pheatmap (v1.0.12), based on raw expression values.
# Gene expression clustering was conducted using the R package ClusterGVis (v0.1.2).
# [3] = tested on: CD69 on Th9 cells; assay: Flow cytometry of CD69 on Th9 cells in vitro (Figure 5J, 7D); design: CD69 expression in Th9 cells: unit not given here; conditions: for CD69 expression in Th9 cells: Figure 7D, one per column (n = 4); for CD69 expression in Th9 cells / CD69 (flow cytometric quantification): individual replicates; for CD69 (flow cytometric quantification): Figure 5J, (n = 5)
# Description: Naive CD4^+ T cells were isolated from the spleens of C57BL/6J or CD45.1^+ OT-II mice using the MojoSort Mouse CD4 Naive T Cell Isolation Kit (BioLegend, catalog 480040), following the manufacturer’s protocol. Purified cells were cultured in RPMI-1640 medium supplemented with 10% FBS, 1% penicillin-streptomycin, and 0.1% β-mercaptoethanol (Gibco, catalog 21985023).
# T cell polarization was initiated under plate-bound anti-CD3 (2 μg/mL, clone 17A2, BioXCell, catalog BE0002) and soluble anti-CD28 (1 μg/mL, clone 37.51, BioXCell, catalog BE0015-1) stimulation, with the addition of cytokines and neutralizing antibodies specific to each subset. For Th9 cells, these included IL-4 (10 ng/mL, Peprotech, catalog 400-04), TGF-β (1 ng/mL, EPOTO Biotech, catalog HF-2021), anti–IL-12 (5 μg/mL, clone C17.8, BioXCell, catalog BE0051), and anti–IFN-γ (10 μg/mL, clone XMG1.2, BioXCell, catalog BE0055); for Th1 cells, these included IL-12 (10 ng/mL, GenScript, catalog Z03211-50) and anti–IL-4 (5 μg/mL, clone 11B11, BioXCell, catalog BE0045); for Th2 cells, these included IL-4 (50 ng/mL), anti–IFN-γ (20 μg /mL), anti–IL-12 (5 μg/mL), Th17 cells: IL-6 (20 ng/mL, EPOTO Biotech, catalog MF-1006), TGF-β (1 ng/mL), IL-1β (10 ng/mL, Peprotech, catalog AF-211-11B), anti–IFN-γ (10 μg/mL), anti–IL-12 (5 μg/mL), and anti–IL-4 (5 μg/mL); and for Tregs, these included TGF-β (3 ng/mL). After 3 days of initial culture, cells were either collected for downstream assays or continued in extended culture with refreshed cytokines to maintain lineage commitment.
# Details regarding staining panels (human and mouse), reagents (including clones and catalog numbers), acquisition settings, compensation/controls, and analysis procedures are provided in Supplemental Methods.
# BioLegend, Cat. No. 422301 or Mouse TruStain FcX™, BioLegend, Cat. No. 101319) for 10 minutes at 4°C. For surface marker detection, cells were stained with fluorochrome-conjugated monoclonal antibodies in 96-well V-bottom plates and incubated on ice for 30 minutes. After staining, cells were washed twice and resuspended in FACS buffer for analysis.
# Prior to intracellular cytokine staining, cells were restimulated for 4 hours with PMA (Absin, Cat. No. abs9107), ionomycin (Sigma-Aldrich, Cat. No. I0634), and brefeldin A (MedChemExpress, Cat. No. HY-16592). For intracellular cytokine staining, cells were first surface-stained as described above, then fixed and permeabilized using the BD Cytofix/Cytoperm™ kit (BD Biosciences, Cat. No. 554714) according to the manufacturer ’s protocol. Intracellular proteins were stained with directly conjugated antibodies targeting IL-9, IL-17a, IL-4, IFN-γ, TNF-α, FOXP3, p-ZAP70, Perforin, and […]
# Antibodies used for mouse samples included those against IL-9 (PE, clone RM9A4, Biolegend, Cat. No. 514104), IFN-γ (PE, clone XMG1.2, Biolegend, Cat. No.
# Cat. No. 103138), CD4 (APC/Cy7, clone E-AB-F1353UJ, Elabscience, Cat. No.
# AF18028), CD8α (PerCP/Cy5.5, clone E-AB-F1104UJ, Elabscience, Cat. No. […]
# clone E-AB-F1187UH, Elabscience, Cat. No. AF19854), TNF-α (BV421, clone MP6-XT22, Biolegend, Cat. No. 506328), FOXP3 (PE, clone FJK-16s, eBioscience, Cat. No.
# Perforin (APC, clone S16009A, Biolegend, Cat. No. 154303) and Granzyme B (APC, […]
# clone QA16A02, Biolegend, Cat. No. 372203). […]
# [4] = single agent, individual replicates
# [5] = EpA + fatostatin, result in words
# [6] = EpA vs control, adjusted P < 0.05, fold change ≥1.5
# [7] = Th9, day 4, samples EPA_1 to EPA_3
compound,measurement,setting,value
"CCCc1cc(-c2nc(-c3ccc(C)cc3)cs2)ccn1 [fatostatin, fatostatin hydrobromide, reference compound]",mitochondrial membrane potential measured by MitoTracker staining,[1]; [4],1160 and 1151 and 1173
same,"cluster 2 genes (calcium ion transport, glycolysis, oxidative phosphorylation, ERK signaling)",[2]; result in words,further enhanced
same,lipid biosynthesis genes,[2]; result in words,further suppressed
same,CD69 expression in Th9 cells,"[3]; single agent, 10 µM",39.9 and 41.1 and 41.2 and 39.2
anteiso-C15 Leu7 surfactin [EpA],MitoTracker Deep Red,"[1]; Figure 4M, individual replicates, (n = 5)",2580000 and 2400000 and 2450000 and 2490000 and 2480000
same,Mito tracker (flow cytometric quantification),"[1]; EpA + ERKin combination, individual replicates",2055 and 2045 and 2104
same,Mito tracker (flow cytometric quantification),"[1]; EpA + MEKin combination, individual replicates",2331 and 2453 and 2355
same,Mito tracker (flow cytometric quantification),[1]; [4],1845 and 1728 and 1865
same,mitochondrial membrane potential measured by MitoTracker staining,"[1]; EpA + Fato combination, individual replicates",1707 and 1737 and 1699
same,mitochondrial membrane potential measured by MitoTracker staining,[1]; [4],1400 and 1434 and 1409
same,mitochondrial membrane potential in Th9 cells,"[1]; MigR1 vector, individual replicates",5844 and 5817 and 5963 and 6149
same,mitochondrial membrane potential in Th9 cells,"[1]; Srebf1 (overexpressing SREBP1), individual replicates",5503 and 5279 and 5218 and 5340
same,mitochondrial membrane potential,"[1]; MEK/ERK inhibition in EpA-treated Th9 cells, MitoTracker, result in words",paradoxical increase in mitochondrial membrane potential
same,mitochondrial membrane potential,"[1]; SREBP1 inhibition (fatostatin) in EpA-Th9, result in words",further augmented
same,EpA-induced mitochondrial membrane potential upon SREBP1 overexpression,[1]; result in words,abolished
same,mitochondrial integrity,[1]; result in words,improved mitochondrial integrity
same,Fads1 expression,[2]; [5],reduced expression
same,Srebp1 expression,[2]; [5],reduced expression
same,number of downregulated genes,[2]; [6],271
same,number of upregulated genes,[2]; [6],228
same,"cluster 2 genes (calcium ion transport, glycolysis, oxidative phosphorylation, ERK signaling)",[2]; result in words,notably upregulated
same,lipid biosynthesis genes,[2]; result in words,progressively downregulated
same,Fpkm of Slc2a1,[2]; replicate 1,48.3562 Fpkm
same,Fpkm of Slc2a1,[2]; replicate 2,48.7446 Fpkm
same,Fpkm of Slc2a1,[2]; replicate 3,49.9027 Fpkm
same,Batf expression (RNA-seq),[2]; [7],93.0998 and 96.722 and 96.1164
same,Fasl expression (RNA-seq),[2]; [7],9.708 and 9.458 and 10.2176
same,Il4 expression (RNA-seq),[2]; [7],8.523 and 8.979 and 8.835
same,Il5 expression (RNA-seq),[2]; [7],0.7687 and 0.6368 and 0.9066
same,Il9 expression (RNA-seq),[2]; [7],619.89 and 651.961 and 648.029
same,Il13 expression (RNA-seq),[2]; [7],15.584 and 17.9728 and 14.2881
same,Lta expression (RNA-seq),[2]; [7],41.371 and 42.2064 and 41.7705
same,Tnf expression (RNA-seq),[2]; [7],5.46 and 5.834 and 6.11
same,Tnfsf9 expression (RNA-seq),[2]; [7],1.423 and 1.362 and 1.3365
same,Tnfsf14 expression (RNA-seq),[2]; [7],5.499 and 5.503 and 5.511
same,Tnfsf15 expression (RNA-seq),[2]; [7],0.1165 and 0.1206 and 0.07294
same,SLC2A1 expression,[2]; result in words,markedly upregulated
same,"Th9 cytokines (Il9, Il4, Il5, Il13) and Spi1, Batf expression",[2]; result in words,upregulated
same,"cytotoxic effector molecules Tnf, Lta, Fasl",[2]; result in words,strong upregulation
same,CD69 expression,[3]; [5],elevated in the combination group
same,CD69 (flow cytometric quantification),[3]; EpA + ERKin combination,27.9 and 23.5 and 24 and 26.9 and 24.1
same,CD69 (flow cytometric quantification),[3]; EpA + MEKin combination,20.8 and 22.9 and 21.2 and 18.2 and 18.1
same,CD69 (flow cytometric quantification),[3]; single agent,59.4 and 133 and 54.7 and 74.6 and 155
same,CD69 expression in Th9 cells,[3]; EpA (10 µM) + Fatostatin (10 µM),54.9 and 46.3 and 45.8 and 49.3
same,CD69 expression in Th9 cells,"[3]; single agent, 10 µM",41.4 and 40.9 (2×) and 41.7
